Key:
[1] = target: S. cerevisiae carbamylphosphate synthetase – aspartate transcarbamylase multifunctional protein (CPSase-ATCase complex) (Saccharomyces cerevisiae, UniProt P07259, E2182K); assay type: biochemical
[2] = target: S. cerevisiae carbamylphosphate synthetase – aspartate transcarbamylase multifunctional protein (CPSase-ATCase complex) (Saccharomyces cerevisiae, UniProt P07259); assay type: biochemical
Sequence of S. cerevisiae carbamylphosphate synthetase – aspartate transcarbamylase multifunctional protein (CPSase-ATCase complex) (Saccharomyces cerevisiae, UniProt P07259) (P07259 2-2214, one chain of several): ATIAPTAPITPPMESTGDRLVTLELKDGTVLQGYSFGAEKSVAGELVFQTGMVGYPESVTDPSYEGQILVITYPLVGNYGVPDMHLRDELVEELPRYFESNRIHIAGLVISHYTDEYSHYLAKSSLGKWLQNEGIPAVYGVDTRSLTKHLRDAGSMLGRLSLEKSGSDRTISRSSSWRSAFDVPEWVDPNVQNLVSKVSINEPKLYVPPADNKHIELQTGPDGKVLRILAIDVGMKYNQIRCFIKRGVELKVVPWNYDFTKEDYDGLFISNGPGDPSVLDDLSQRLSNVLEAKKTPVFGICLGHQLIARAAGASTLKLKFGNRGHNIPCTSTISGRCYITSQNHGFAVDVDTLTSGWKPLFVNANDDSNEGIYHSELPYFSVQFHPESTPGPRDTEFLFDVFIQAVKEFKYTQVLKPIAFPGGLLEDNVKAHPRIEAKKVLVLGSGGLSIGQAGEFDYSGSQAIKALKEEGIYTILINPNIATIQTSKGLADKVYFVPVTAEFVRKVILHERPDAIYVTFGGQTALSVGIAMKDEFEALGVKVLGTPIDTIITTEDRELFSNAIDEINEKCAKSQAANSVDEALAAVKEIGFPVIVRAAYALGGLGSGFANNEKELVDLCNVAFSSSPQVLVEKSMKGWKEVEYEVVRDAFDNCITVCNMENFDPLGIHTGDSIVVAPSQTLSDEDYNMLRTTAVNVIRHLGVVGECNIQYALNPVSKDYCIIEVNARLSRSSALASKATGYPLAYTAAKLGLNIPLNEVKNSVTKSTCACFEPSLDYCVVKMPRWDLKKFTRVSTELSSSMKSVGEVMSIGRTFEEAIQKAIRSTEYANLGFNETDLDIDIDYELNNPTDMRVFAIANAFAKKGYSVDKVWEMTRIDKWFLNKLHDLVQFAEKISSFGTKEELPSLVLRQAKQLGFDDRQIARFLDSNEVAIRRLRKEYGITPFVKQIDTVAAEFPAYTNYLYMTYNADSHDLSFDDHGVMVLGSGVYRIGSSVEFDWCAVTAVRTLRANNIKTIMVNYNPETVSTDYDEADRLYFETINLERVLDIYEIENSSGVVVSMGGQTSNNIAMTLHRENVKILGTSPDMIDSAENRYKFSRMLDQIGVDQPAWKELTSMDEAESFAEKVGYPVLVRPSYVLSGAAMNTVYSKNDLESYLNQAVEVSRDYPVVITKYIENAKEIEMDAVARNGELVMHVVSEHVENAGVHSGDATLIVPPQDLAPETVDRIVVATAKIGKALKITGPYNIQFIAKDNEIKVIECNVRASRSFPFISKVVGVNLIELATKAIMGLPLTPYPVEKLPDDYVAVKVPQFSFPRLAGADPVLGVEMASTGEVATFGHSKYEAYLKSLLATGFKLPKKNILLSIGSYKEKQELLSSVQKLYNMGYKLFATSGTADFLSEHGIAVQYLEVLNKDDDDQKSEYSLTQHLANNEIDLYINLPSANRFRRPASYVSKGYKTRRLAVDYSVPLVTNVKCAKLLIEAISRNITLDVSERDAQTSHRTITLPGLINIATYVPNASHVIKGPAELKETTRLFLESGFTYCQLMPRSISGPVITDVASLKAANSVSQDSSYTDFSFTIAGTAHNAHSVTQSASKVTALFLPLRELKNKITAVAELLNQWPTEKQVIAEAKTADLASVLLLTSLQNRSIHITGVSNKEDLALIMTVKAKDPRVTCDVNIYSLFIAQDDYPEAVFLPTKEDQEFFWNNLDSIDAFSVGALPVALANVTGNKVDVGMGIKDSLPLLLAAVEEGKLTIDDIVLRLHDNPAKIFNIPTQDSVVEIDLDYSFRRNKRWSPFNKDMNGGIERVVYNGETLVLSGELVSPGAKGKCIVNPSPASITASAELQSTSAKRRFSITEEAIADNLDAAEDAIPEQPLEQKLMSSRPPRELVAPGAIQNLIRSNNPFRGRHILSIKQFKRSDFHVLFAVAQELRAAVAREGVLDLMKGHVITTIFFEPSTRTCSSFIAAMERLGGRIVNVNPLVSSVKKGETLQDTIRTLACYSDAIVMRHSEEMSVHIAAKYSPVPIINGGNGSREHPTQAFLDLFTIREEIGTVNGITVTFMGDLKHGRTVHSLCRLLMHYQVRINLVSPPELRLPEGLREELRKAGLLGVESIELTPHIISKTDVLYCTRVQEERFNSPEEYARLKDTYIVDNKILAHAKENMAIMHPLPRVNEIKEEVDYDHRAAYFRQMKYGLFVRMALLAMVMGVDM

Sequence of S. cerevisiae carbamylphosphate synthetase – aspartate transcarbamylase multifunctional protein (CPSase-ATCase complex) (Saccharomyces cerevisiae, UniProt P07259, E2182K) (P07259 2-2214 E2182K, one chain of several): as the sequence (P07259 2-2214, one chain of several) above, with E2181K counted along it

Work on `O=c1ccn([C@@H]2O[C@H](COP(=O)(O)OP(=O)(O)OP(=O)(O)O)[C@@H](O)[C@H]2O)c(=O)[nH]1` [UTP] yielded a Ki [1] of 3000 ± 1000 µM and an IC50 [2] of 800 µM.

From PMC434488 (BMC Biochemistry, 2004)
